This note sets out measurements from patent US20120046364A1, “Novel Sulfonic Acid-Containing Thyromimetics, and Methods for Their Use” (METABASIS THERAPEUTICS, INC., priority 2009, published 2012).

Experiment [1] addresses T1, human thyroid hormone receptor TRα (TRα1) (Homo sapiens, UniProt P10827).
T1 construct: made in house; host or cells: Sf9 insect cells (baculovirus), crude lysate
T1 sequence (P10827 1-410 isoform P10827-2): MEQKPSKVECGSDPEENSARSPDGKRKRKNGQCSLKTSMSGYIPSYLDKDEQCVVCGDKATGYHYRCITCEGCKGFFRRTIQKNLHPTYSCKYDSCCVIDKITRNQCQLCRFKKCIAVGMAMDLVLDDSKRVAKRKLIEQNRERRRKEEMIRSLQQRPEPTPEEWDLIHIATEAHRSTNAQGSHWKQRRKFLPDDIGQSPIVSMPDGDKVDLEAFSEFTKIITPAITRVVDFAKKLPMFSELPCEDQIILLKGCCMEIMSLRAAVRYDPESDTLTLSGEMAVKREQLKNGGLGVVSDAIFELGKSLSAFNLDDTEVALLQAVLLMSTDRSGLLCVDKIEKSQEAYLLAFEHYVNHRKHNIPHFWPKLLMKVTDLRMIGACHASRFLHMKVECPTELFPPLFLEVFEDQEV
T1 sequence (P19793 1-462 partner): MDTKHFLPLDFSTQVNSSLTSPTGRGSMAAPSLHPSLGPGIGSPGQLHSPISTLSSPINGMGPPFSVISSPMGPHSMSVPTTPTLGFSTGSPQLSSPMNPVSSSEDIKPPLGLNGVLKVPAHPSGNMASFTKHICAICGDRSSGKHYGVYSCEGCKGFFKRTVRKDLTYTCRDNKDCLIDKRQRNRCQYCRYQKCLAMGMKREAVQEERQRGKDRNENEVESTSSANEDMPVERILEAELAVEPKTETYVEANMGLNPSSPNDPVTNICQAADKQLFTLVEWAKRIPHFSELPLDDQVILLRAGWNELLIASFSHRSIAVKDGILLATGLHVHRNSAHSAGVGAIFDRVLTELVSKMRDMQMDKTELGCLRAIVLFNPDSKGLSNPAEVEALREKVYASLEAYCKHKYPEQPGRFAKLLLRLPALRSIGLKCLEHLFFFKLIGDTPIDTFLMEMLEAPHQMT
The experiment is described as follows: Receptor binding, TRα (125I-T3 displacement / SPA). As for the experimental part:
(§1) Methods: Baculoviruses expressing TRα1, TRβ1 and RXRα are generated using cDNA and other reagents from Invitrogen (Carlsbad, Calif.). To produce TR/RXR heterodimer proteins, the sf9 insect cells are first grown to a density of 15×10^5 cells/mL. TRα1 or TRβ1 and RXRα baculovirus stocks are added to the cell culture with a ratio of 1 to 1 (multiplicity of infection=10). The cells are harvested three days after the infection. […] The bound ^125I-T3 is counted with a scintillation counter.
(§2) Binding of compounds to either the TRα1 or TRβ1 are also performed by means of scintillation proximity assays (SPA). The SPA assay, a common method used for the quantitation of receptor-ligand equilibria, makes use of special beads coated with a scintillant and a capture molecule, copper, which binds to the histidine-tagged α or β receptor.

Experiment [2] addresses T2, human thyroid hormone receptor TRβ (TRβ1) (Homo sapiens, UniProt P10828).
T2 construct: made in house; host or cells: Sf9 insect cells (baculovirus), crude lysate
T2 sequence (P10828 1-461): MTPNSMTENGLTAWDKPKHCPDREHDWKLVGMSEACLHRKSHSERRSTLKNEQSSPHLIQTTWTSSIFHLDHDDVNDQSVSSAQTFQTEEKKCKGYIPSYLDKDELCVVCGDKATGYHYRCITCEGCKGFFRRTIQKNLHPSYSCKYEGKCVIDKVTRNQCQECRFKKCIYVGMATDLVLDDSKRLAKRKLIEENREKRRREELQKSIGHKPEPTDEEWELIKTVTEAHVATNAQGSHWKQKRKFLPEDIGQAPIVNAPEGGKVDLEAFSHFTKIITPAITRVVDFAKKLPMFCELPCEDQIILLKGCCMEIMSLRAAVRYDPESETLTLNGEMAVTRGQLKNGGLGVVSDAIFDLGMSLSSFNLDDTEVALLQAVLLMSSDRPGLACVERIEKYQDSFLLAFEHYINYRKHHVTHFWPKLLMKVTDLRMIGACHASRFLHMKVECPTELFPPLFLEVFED
T2 sequence (P19793 1-462 partner): T1 sequence (P19793 1-462 partner)
The experiment in a line: Receptor binding, TRβ (125I-T3 displacement / SPA). The conditions noted are these: for Ratio: TRα Kd / TRβ Kd. As for the experimental part: as §1, §2

Experiment [3] can be described thus: PO 24 Hr. CF TPC decrease. In kind it is in vivo. The conditions noted are these: dose 0.2 mg/kg. The text has this:
Administering sulfonic acid-containing compounds that bind to a TR to animals can result in changes in lipids, including hepatic and/or plasma cholesterol levels; changes in lipoprotein levels including LDL-cholesterol, lipoprotein a (Lp(a)); changes in hepatic glycogen levels; and changes in energy expenditure as measured by changes in oxygen consumption and in some cases animal weight. For example, the effect on cholesterol may be determined using cholesterol fed animals such as normal rats and hamsters, or TRα^−/− knockout mice. Cholesterol may be measured using standard tests. Hepatic glycogen levels may be determined from livers isolated from treated animals. Changes in energy expenditure may be monitored by measuring changes in oxygen consumption (MVO2). Varieties of methods are well described in the literature and include measurement in the whole animal using Oxymax chambers (U.S. Pat. No. 6,441,015). Livers from treated rats can also be evaluated (Fernandez et al., Toxicol. Lett. 69(2):205-10 (1993)) as well as isolated mitochondria from liver (Carreras et al., Am. J. Physiol. Heart Circ. Physiol. 281(6):H2282-8 (2001)). Hepatocytes from treated rats can also be evaluated (Ismail-Beigi F et al., J Gen Physiol. 73(3):369-83 (1979)).

In the case of “3,5-dimethyl-4-(4′-hydroxy-3′-iso-propylbenzyl)phenyl-methanesulfonic acid [Compound 2]”, the Kd in experiment [1] is 1.1 nM. Further, in experiment [2], the Kd worked out at 0.4 nM and the Ratio was determined as 2.8. In experiment [3], the “PO 24 Hr. CF TPC Dec (d % of Cont)” value is −42 d % of Cont.

`Cc1cc(CS(=O)(=O)O)cc(C)c1Cc1ccc(O)c(C(C)C)c1` [Compound 1] came in with a dissociation constant (Kd) in experiment [1] of 12 nM. In addition, in experiment [2], the Kd turned out to be 0.7 nM and the Ratio is reported as 17.1. In addition, in experiment [3], the “PO 24 Hr. CF TPC Dec (d % of Cont)” value is recorded as −45 d % of Cont.
